Source: patent US20110028566A1, “COMPOSITIONS AND PRODUCTS CONTAINING CYCLOALIPHATIC DIOL ANTIMICROBIAL AGENTS AND METHODS OF USING THE COMPOSITIONS AND PRODUCTS” (EASTMAN CHEMICAL COMPANY, priority 2009, published 2011)

Key:
Assay in all cases: Microbial challenge testing in BPW
Format in all cases: cell-based
Bacillus subtilis = details: BPW, w/v % in label, average of replicates; for Grade code, B. subtilis, 3 Day: 3 days incubation; for Grade code, B. subtilis, 14 Day: 14 days incubation; for Grade code, B. subtilis, 30 Days: 30 days incubation
In short: (§1)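 Bacteria, including ATCC and wild-type isolates from chemical products, were grown in tryptose soy broth with 1% dextrose for at least 96 hours. Inoculum was sized by plate count and turbidity (NTU) and added to test-material substrates to give 10^5 to 10^6 cfu/mL initially. Incubation ran 14 days at 35° C., then at room temperature.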

Pseudomonas aeruginosa = details: BPW, w/v % in label, average of replicates; for Grade code, P. aeruginosa, 3 Days: 3 days incubation; for Grade code, P. aeruginosa, 13 Days: 13 days incubation; for Grade code, P. aeruginosa, 30 Days: 30 days incubation
In short: as §1

Burkholderia cepacia = details: BPW, w/v % in label, average of replicates; for Grade code, B. cepacia, 3 Days: 3 days incubation; for Grade code, B. cepacia, 14 Days: 14 days incubation; for Grade code, B. cepacia, 30 Days: 30 days incubation
In short: as §1

Staphylococcus aureus = details: BPW, w/v % in label, average of replicates; for Grade code, S. aureus, 3 Day: 3 days incubation; for Grade code, S. aureus, 14 Day: 14 days incubation; for Grade code, S. aureus, 30 Day: 30 days incubation
In short: as §1

Escherichia coli = details: BPW, w/v % in label, average of replicates; for Grade code, E. coli, 3 Day: 3 days incubation; for Grade code, E. coli, 14 Day: 14 days incubation; for Grade code, E. coli, 30 Day: 30 days incubation
In short: as §1

[1] = test system: Staphylococcus epidermidis; details: BPW, w/v % in label, average of replicates; for Grade code, S. epidermidis, 3 Days: 3 days incubation; for Grade code, S. epidermidis, 13 Days: 13 days incubation; for Grade code, S. epidermidis, 30 Days: 30 days incubation
In short: as §1

Aeromonas sp. = details: BPW, w/v % in label, average of replicates; for Grade code, Aeromonas sp, 3 Days: 3 days incubation; for Grade code, Aeromonas sp, 14 Days: 14 days incubation; for Grade code, Aeromonas sp, 30 Days: 30 days incubation
In short: as §1

Streptococcus mutans = details: BPW, w/v % in label, average of replicates; for Grade code, S. mutans, 3 Day: 3 days incubation; for Grade code, S. mutans, 13 Day: 13 days incubation; for Grade code, S. mutans, 30 Days: 30 days incubation
In short: as §1

Proteus vulgaris = details: BPW, w/v % in label, average of replicates; for Grade code, P. vulgaris, 3 Days: 3 days incubation; for Grade code, P. vulgaris, 13 Days: 13 days incubation; for Grade code, P. vulgaris, 30 Day: 30 days incubation
In short: as §1

Compound: CCCCCCC(O)CO (stereo not drawn) [CG, 1,2-octanediol]
- Grade code, B. subtilis, 3 Day (Bacillus subtilis; listed as 0.25% CG): 4 (1001 to 10,000 colonies (thus 10,000 cfu/mL to 100,000 cfu/mL))
- Grade code, B. subtilis, 3 Day (Bacillus subtilis; listed as 0.5% CG): 3 (101 to 1000 colonies (thus 1000 to 10,000 cfu/mL))
- Grade code, B. subtilis, 14 Day (Bacillus subtilis; listed as 0.25% CG): 4 (1001 to 10,000 colonies (thus 10,000 cfu/mL to 100,000 cfu/mL))
- Grade code, B. subtilis, 14 Day (Bacillus subtilis; listed as 0.5% CG): 1 (1 to 51 colonies counted (thus 10 to 510 cfu/mL))
- Grade code, B. subtilis, 30 Days (Bacillus subtilis; listed as 0.25% CG): 4 (1001 to 10,000 colonies (thus 10,000 cfu/mL to 100,000 cfu/mL))
- Grade code, B. subtilis, 30 Days (Bacillus subtilis; listed as 0.5% CG): 1 (1 to 51 colonies counted (thus 10 to 510 cfu/mL))
- Grade code, P. aeruginosa, 3 Days (Pseudomonas aeruginosa; listed as 0.25% CG): 2 (52 to 100 colonies counted (thus 520 to 1000 cfu/mL))
- Grade code, P. aeruginosa, 3 Days (Pseudomonas aeruginosa; listed as 0.5% CG): 0 (No growth detected or <1 colony (thus <10 cfu/mL))
- Grade code, P. aeruginosa, 13 Days (Pseudomonas aeruginosa; listed as 0.25% CG): 2 (52 to 100 colonies counted (thus 520 to 1000 cfu/mL))
- Grade code, P. aeruginosa, 13 Days (Pseudomonas aeruginosa; listed as 0.5% CG): 0 (No growth detected or <1 colony (thus <10 cfu/mL))
- Grade code, P. aeruginosa, 30 Days (Pseudomonas aeruginosa; listed as 0.25% CG): 2 (52 to 100 colonies counted (thus 520 to 1000 cfu/mL))
- Grade code, P. aeruginosa, 30 Days (Pseudomonas aeruginosa; listed as 0.5% CG): 0 (No growth detected or <1 colony (thus <10 cfu/mL))
- Grade code, B. cepacia, 3 Days (Burkholderia cepacia): 2 (52 to 100 colonies counted (thus 520 to 1000 cfu/mL))
- Grade code, B. cepacia, 14 Days (Burkholderia cepacia; listed as 0.25% CG): 0.5
- Grade code, B. cepacia, 14 Days (Burkholderia cepacia; listed as 0.5% CG): 0 (No growth detected or <1 colony (thus <10 cfu/mL))
- Grade code, B. cepacia, 30 Days (Burkholderia cepacia; listed as 0.25% CG): 0.5
- Grade code, B. cepacia, 30 Days (Burkholderia cepacia; listed as 0.5% CG): 0 (No growth detected or <1 colony (thus <10 cfu/mL))
- Grade code, S. aureus, 3 Day (Staphylococcus aureus; listed as 0.25% CG): 4 (1001 to 10,000 colonies (thus 10,000 cfu/mL to 100,000 cfu/mL))
- Grade code, S. aureus, 3 Day (Staphylococcus aureus; listed as 0.5% CG): 3 (101 to 1000 colonies (thus 1000 to 10,000 cfu/mL))
- Grade code, S. aureus, 14 Day (Staphylococcus aureus; listed as 0.25% CG): 2 (52 to 100 colonies counted (thus 520 to 1000 cfu/mL))
- Grade code, S. aureus, 14 Day (Staphylococcus aureus; listed as 0.5% CG): 0 (No growth detected or <1 colony (thus <10 cfu/mL))
- Grade code, S. aureus, 30 Day (Staphylococcus aureus; listed as 0.25% CG): 2 (52 to 100 colonies counted (thus 520 to 1000 cfu/mL))
- Grade code, S. aureus, 30 Day (Staphylococcus aureus; listed as 0.5% CG): 0 (No growth detected or <1 colony (thus <10 cfu/mL))
- Grade code, E. coli, 3 Day (Escherichia coli; listed as 0.25% CG): 3 (101 to 1000 colonies (thus 1000 to 10,000 cfu/mL))
- Grade code, E. coli, 3 Day (Escherichia coli; listed as 0.5% CG): 1 (1 to 51 colonies counted (thus 10 to 510 cfu/mL))
- Grade code, E. coli, 14 Day (Escherichia coli; listed as 0.25% CG): 2 (52 to 100 colonies counted (thus 520 to 1000 cfu/mL))
- Grade code, E. coli, 14 Day (Escherichia coli; listed as 0.5% CG): 0 (No growth detected or <1 colony (thus <10 cfu/mL))
- Grade code, E. coli, 30 Day (Escherichia coli; listed as 0.25% CG): 2 (52 to 100 colonies counted (thus 520 to 1000 cfu/mL))
- Grade code, E. coli, 30 Day (Escherichia coli; listed as 0.5% CG): 0 (No growth detected or <1 colony (thus <10 cfu/mL))
- Grade code, S. epidermidis, 3 Days ([1]; listed as 0.25% CG): 4 (1001 to 10,000 colonies (thus 10,000 cfu/mL to 100,000 cfu/mL))
- Grade code, S. epidermidis, 3 Days ([1]; listed as 0.5% CG): 2 (52 to 100 colonies counted (thus 520 to 1000 cfu/mL))
- Grade code, S. epidermidis, 13 Days ([1]; listed as 0.25% CG): 1 (1 to 51 colonies counted (thus 10 to 510 cfu/mL))
- Grade code, S. epidermidis, 13 Days ([1]; listed as 0.5% CG): 0 (No growth detected or <1 colony (thus <10 cfu/mL))
- Grade code, S. epidermidis, 30 Days ([1]; listed as 0.25% CG): 1 (1 to 51 colonies counted (thus 10 to 510 cfu/mL))
- Grade code, S. epidermidis, 30 Days ([1]; listed as 0.5% CG): 0 (No growth detected or <1 colony (thus <10 cfu/mL))
- Grade code, Aeromonas sp, 3 Days (Aeromonas sp.): 4 (1001 to 10,000 colonies (thus 10,000 cfu/mL to 100,000 cfu/mL))
- Grade code, Aeromonas sp, 14 Days (Aeromonas sp.): 4 (1001 to 10,000 colonies (thus 10,000 cfu/mL to 100,000 cfu/mL))
- Grade code, Aeromonas sp, 30 Days (Aeromonas sp.): 4 (1001 to 10,000 colonies (thus 10,000 cfu/mL to 100,000 cfu/mL))
- Grade code, S. mutans, 3 Day (Streptococcus mutans): 0 (No growth detected or <1 colony (thus <10 cfu/mL))
- Grade code, S. mutans, 13 Day (Streptococcus mutans): 0 (No growth detected or <1 colony (thus <10 cfu/mL))
- Grade code, S. mutans, 30 Days (Streptococcus mutans): 0 (No growth detected or <1 colony (thus <10 cfu/mL))
- Grade code, P. vulgaris, 3 Days (Proteus vulgaris; listed as 0.25% CG): 4 (1001 to 10,000 colonies (thus 10,000 cfu/mL to 100,000 cfu/mL))
- Grade code, P. vulgaris, 3 Days (Proteus vulgaris; listed as 0.5% CG): 3 (101 to 1000 colonies (thus 1000 to 10,000 cfu/mL))
- Grade code, P. vulgaris, 13 Days (Proteus vulgaris): 2 (52 to 100 colonies counted (thus 520 to 1000 cfu/mL))
- Grade code, P. vulgaris, 30 Day (Proteus vulgaris): 2 (52 to 100 colonies counted (thus 520 to 1000 cfu/mL))

Compound: O=C([O-])CN(CCN(CC(=O)O)CC(=O)O)CC(=O)[O-].[Na+].[Na+] [EDTA, ethylenediaminetetraacetic acid disodium salt]
- Grade code, B. subtilis, 3 Day (Bacillus subtilis): 4 (1001 to 10,000 colonies (thus 10,000 cfu/mL to 100,000 cfu/mL))
- Grade code, B. subtilis, 14 Day (Bacillus subtilis): 4 (1001 to 10,000 colonies (thus 10,000 cfu/mL to 100,000 cfu/mL))
- Grade code, B. subtilis, 30 Days (Bacillus subtilis): 4 (1001 to 10,000 colonies (thus 10,000 cfu/mL to 100,000 cfu/mL))
- Grade code, P. aeruginosa, 3 Days (Pseudomonas aeruginosa): 4 (1001 to 10,000 colonies (thus 10,000 cfu/mL to 100,000 cfu/mL))
- Grade code, P. aeruginosa, 13 Days (Pseudomonas aeruginosa): 4 (1001 to 10,000 colonies (thus 10,000 cfu/mL to 100,000 cfu/mL))
- Grade code, P. aeruginosa, 30 Days (Pseudomonas aeruginosa): 5 (More than 10,000 colonies estimated (thus >100,000 cfu/mL))
- Grade code, B. cepacia, 3 Days (Burkholderia cepacia): 4 (1001 to 10,000 colonies (thus 10,000 cfu/mL to 100,000 cfu/mL))
- Grade code, B. cepacia, 14 Days (Burkholderia cepacia): 4 (1001 to 10,000 colonies (thus 10,000 cfu/mL to 100,000 cfu/mL))
- Grade code, B. cepacia, 30 Days (Burkholderia cepacia): 4 (1001 to 10,000 colonies (thus 10,000 cfu/mL to 100,000 cfu/mL))
- Grade code, S. aureus, 3 Day (Staphylococcus aureus): 5 (More than 10,000 colonies estimated (thus >100,000 cfu/mL))
- Grade code, S. aureus, 14 Day (Staphylococcus aureus): 4 (1001 to 10,000 colonies (thus 10,000 cfu/mL to 100,000 cfu/mL))
- Grade code, S. aureus, 30 Day (Staphylococcus aureus): 4 (1001 to 10,000 colonies (thus 10,000 cfu/mL to 100,000 cfu/mL))
- Grade code, E. coli, 3 Day (Escherichia coli): 5 (More than 10,000 colonies estimated (thus >100,000 cfu/mL))
- Grade code, E. coli, 14 Day (Escherichia coli): 5 (More than 10,000 colonies estimated (thus >100,000 cfu/mL))
- Grade code, E. coli, 30 Day (Escherichia coli): 5 (More than 10,000 colonies estimated (thus >100,000 cfu/mL))
- Grade code, S. epidermidis, 3 Days [1]: 4 (1001 to 10,000 colonies (thus 10,000 cfu/mL to 100,000 cfu/mL))
- Grade code, S. epidermidis, 13 Days [1]: 3 (101 to 1000 colonies (thus 1000 to 10,000 cfu/mL))
- Grade code, S. epidermidis, 30 Days [1]: 4 (1001 to 10,000 colonies (thus 10,000 cfu/mL to 100,000 cfu/mL))
- Grade code, Aeromonas sp, 3 Days (Aeromonas sp.): 5 (More than 10,000 colonies estimated (thus >100,000 cfu/mL))
- Grade code, Aeromonas sp, 14 Days (Aeromonas sp.): 4 (1001 to 10,000 colonies (thus 10,000 cfu/mL to 100,000 cfu/mL))
- Grade code, Aeromonas sp, 30 Days (Aeromonas sp.): 4 (1001 to 10,000 colonies (thus 10,000 cfu/mL to 100,000 cfu/mL))
- Grade code, S. mutans, 3 Day (Streptococcus mutans): 4 (1001 to 10,000 colonies (thus 10,000 cfu/mL to 100,000 cfu/mL))
- Grade code, S. mutans, 13 Day (Streptococcus mutans): 4 (1001 to 10,000 colonies (thus 10,000 cfu/mL to 100,000 cfu/mL))
- Grade code, S. mutans, 30 Days (Streptococcus mutans): 4 (1001 to 10,000 colonies (thus 10,000 cfu/mL to 100,000 cfu/mL))
- Grade code, P. vulgaris, 3 Days (Proteus vulgaris): 5 (More than 10,000 colonies estimated (thus >100,000 cfu/mL))
- Grade code, P. vulgaris, 13 Days (Proteus vulgaris): 4 (1001 to 10,000 colonies (thus 10,000 cfu/mL to 100,000 cfu/mL))
- Grade code, P. vulgaris, 30 Day (Proteus vulgaris): 4 (1001 to 10,000 colonies (thus 10,000 cfu/mL to 100,000 cfu/mL))
